For data set [1], the system named is experimental model of osteoarthritis induced by intra-articular injection of sodium monoiodoacetate (MIA). Kind of data set: MIA-induced osteoarthritis model, incapacitance test (weight imbalance between paws). As to conditions: rat; for time of maximal inhibitory effect after administration / reduction of the pain caused by osteoarthritis: 3 μg/25 μl i.a., single compound; for reduction of the pain caused by osteoarthritis: 7 days after MIA; for inhibitory effect at higher dose: 10 μg/25 μl i.a. versus 3 μg/25 μl; for duration of antinociceptive effect: single compound i.a. Type of data set: in vivo. As to the method: The activity of MEN16132, icatibant and hyaluronic acid was measured in an experimental model of osteoarthritis induced by intra-articular injection of sodium monoiodoacetate (MIA) which inhibits glycolysis in the chondrocytes, thus causing damage and death to those cells with consequent degeneration of the joint surface, in a very similar way to human osteoarthritis.
MIA (1 mg/25 μl) was injected into the intra-articular space of the right knee of the rat, while 25 μl of saline was administered to the left knee as internal control.
The administration of MIA causes pain, difficulty of walking and inability to bear weight on the paw corresponding to the treated knee; the weight of the body therefore falls mainly on the left paw, to an extent directly proportional to the pain perceived. This effect persists for many weeks. The imbalance in weight on the two weight-bearing paws, evaluated in a non-invasive way with the incapacitance test, measures the pain resulting from the joint damage (osteoarthritis) induced by MIA.
The purpose of this test was to evaluate the protective effect of bradykinin B2 receptor antagonists against experimental osteoarthritis, and to establish the effect of co-administration of hyaluronic acid.
Seven days after the treatment with MIA, the compounds under study were injected, and the test was repeated at various times to measure the painkilling effect and its duration.

For data set [2], the system named is patients with symptomatic OA of the knee. As to conditions: 58 patients, single intra-articular administration 90 μg/1 ml; cited from earlier work.
The test system of data set [3] is patients with OA of the knee. Conditions: intra-articular, 3×500 μg injections one week apart; cited from earlier work.

Results on two compounds are retold here after US9101627B2, “Pharmaceutical compositions containing bradykinin antagonists and hyaluronic acid, and uses thereof” (ISTITUTO LUSO FARMACO D'ITALIA S.P.A., priority 2007, dated 2015).

With `Cc1cc(C)c2cccc(OCc3c(Cl)ccc(S(=O)(=O)NC4(C(=O)N5CCN(C(=O)[C@@H](N)CCC[N+](C)(C)C)CC5)CCOCC4)c3Cl)c2n1` [MEN16132, (4-(S)-Amino-5-(4-{4-[2,4-dichloro-3-(2,4-dimethyl-quinoline-8-yloxymethyl)-benzenesulphonylamino]-tetrahydro-pyran-4-carbonyl}-piperazin-1-yl)-5-oxo-pentyl]-trimethyl-ammonium], in data set [1], the “time of maximal inhibitory effect after administration” value is given as 3 days, the “reduction of the pain caused by osteoarthritis” value is on record as 55%, the “inhibitory effect at higher dose” value is “No further significant increase in inhibitory effect” and the “duration of antinociceptive effect” value is given as “lasted for over a week”.

Consider `NC(N)=NCCC[C@@H](N)C(=O)N[C@@H](CCCN=C(N)N)C(=O)N1CCC[C@H]1C(=O)N1C[C@H](O)C[C@H]1C(=O)NCC(=O)N[C@@H](Cc1cccs1)C(=O)N[C@@H](CO)C(=O)N1Cc2ccccc2C[C@@H]1C(=O)N1[C@H](C(=O)N[C@@H](CCCN=C(N)N)C(=O)O)C[C@@H]2CCCC[C@@H]21` [icatibant, H-D-Arg-Arg-Pro-Hyp-Gly-Thi-Ser-D-Tic-Oic-Arg-OH], for which, in data set [1], the “time of maximal inhibitory effect after administration” value was 3 days, the “reduction of the pain caused by osteoarthritis” value stood at 40%, the “inhibitory effect at higher dose” value is recorded as “No further significant increase in inhibitory effect” and the “duration of antinociceptive effect” value is “lasted for over a week”. For the same compound, the “intensity of pain in the knee versus placebo” value in data set [2] is given as “reduced the intensity of pain in the knee to a greater extent than the placebo”. Moreover, in data set [3], the “duration of analgesic response after the treatment” value is recorded as “up to 3 months” and the side effects result is recorded as “negligible or no side effects”.
